Experimental data: US20040167226A1, “Methods for the treatment of pain and traumatic injury using benzamides and compositions containing the same” (priority 2002, published 2004)

Experiments:
[1] = system: fluid percussion brain injury; experiment: Lateral fluid percussion injury (FPI) model of traumatic brain injury; assay type: in vivo; conditions: rats
Description: Compound A was tested for efficacy in an animal model of traumatic brain injury. Specifically, Compound A was evaluated in the lateral fluid percussion injury (FPI) model developed by McIntosh (McIntosh T. K., et. al (1989), Neuroscience 28:233-244). This model replicates many of the pathological aspects found in humans who have sustained traumatic brain injury. Furthermore, the damage caused by the injury is sensitive to pharmacological intervention, and thus provides a robust method for preclinical efficacy testing. In this model, animals are subjected to a fluid percussion brain injury, and are then given Compound A shortly thereafter. At specific time points, animals are evaluated using outcome measures that assess cognitive and locomoter deficits that are consequences of the injury. In addition, following behavioral analysis, animals are sacrificed and their brains assessed with respect to a variety of histopathological parameters.
For these studies, experimental parameters are used that were previously developed by Dr. Tracy McIntosh, Director of the University of Pennsylvania Head Injury Center. In these studies, male rats (350-400 g) are used for injuries. All animals are injured at a moderate/severe injury level (2.5-3.0 atm) via a craniotomy positioned over the left parietal cortex centered between Bregma and Lambda. […] Following behavioral testing, these animals are sacrificed, and their brains are analyzed for tissue damage (cortical volume loss, and neuronal cell counts), and other histopathological readouts.
The ability of Compound A to restore cognitive deficits in spatial memory and learning is evaluated at 48 hrs post injury using the Morris watermaze paradigm (Smith D. H. et al. (1991), J. Neurotrauma 8(4): 259-269; Schmidt, R. H. et al. (1999), J. Neurotrauma 16(12): 1139-1147). […] In the learning paradigm, the animals are trained to find the platform, and the reduction in latency with increasing number of training sessions is recorded. […]

[2] = system: neurofilament (nerve fiber density); experiment: Immunohistochemistry of neurofilament on transverse spinal cord sections; assay type: in vivo; conditions: rats after spinal cord injury; anti-neurofilament staining; sections rostral and caudal to epicenter
Description: Compound A was tested in both the rat dorsal hemisection (Guth, L. et al. (1980), J. Neurosurgery 52: 73-86) and contusion models (Scheff, S. W. (2003), J. Neurotrauma 20: 179-193) for evaluation of efficacy. These models are widely used in the field of spinal cord injury and replicate many of the pathological aspects found in humans who have sustained a spinal cord injury. Rats were subjected to an experimental spinal cord injury at T8, and were given Compound A shortly thereafter. Behavioral tests to assess the locomotion deficits were performed after the lesion. At the end of the experiment, animals were sacrificed and the spinal cord was collected for histopathological analysis. […] Histological assessment of the tissue at the site of injury was also made in both the drug treated and untreated group. In particular, subsequent to the behavioral measurement, spinal cord tissue from each animal was obtained and serial transverse tissue sections were stained with either anti-neurofilament antibody or antibodies specific for the inflammatory markers, tumor necrosis factor alpha (TNFα) and for the inducible form of nitric oxide synthetase (iNOS), followed by incubation with Alexa Fluor®-conjugated secondary antibodies.

[3] = Solubility of Compound A in dosing vehicles; assay type: physicochemical
Description: PEG-200 formulation for i.p. administration of Compound A: PEG-200 was diluted in deionized destilled water to give a final concentration of 75% (volume/volume). Compound A was weighed to yield a final concentration of 10 mg/ml in 75% PEG-200 vehicle and sonicated for 12×30 seconds with 5 second intervals on ice to generate a Compound A suspension. 100 μL of either Compound A suspension or control vehicle (75% PEG-200) per 20 grams of mice (body weight) was administered via i.p., thus yielding a dose of 50 mg/kg (body weight).
Cremophor EL/alcohol/saline formulation for i.p. administration of Compound A: 40 mg/ml, 20 mg/ml or 10 mg/ml of Compound A was dissolved in Cremophor EL/alcohol (90:10) (volume:volume), respectively, by brief sonication on ice, then freshly diluted 10-fold in saline solution (9% Cremophor EL; 1% ETOH and 90% saline) to give a final concentration of 4 mg/ml, 2 mg/ml and 1 mg/ml, respectively, before injection. 100 μL of Compound A solution at a concentration of […] was administered via i.p. to mice (per 20 grams of body weight), thus yielding a dose of 20 mg/kg (body weight), 10 mg/kg (body weight), and 5 mg/kg (body weight), respectively. The control vehicle was 9% Cremophor EL/1% ETOH/90% saline. […]

CC(=O)Nc1ccc(C(=O)NC(C)(C)C)cc1 [Compound A, N-tert-butyl-4-acetamidobenzamide]
effects on the other locomotor tests, beam balance and rotating pole (in words) ([1]; Study Number 1, 20 mg/kg/BID i.p. 7 days, 75% PEG 200): limited | effects on the composite neuroscore (in words) ([1]; Study Number 1, 20 mg/kg/BID i.p. 7 days, 75% PEG 200, acute and long term): robust acute and long term effects | effects in acute or long term locomotor or cognitive tests (in words) ([1]; Study Number 2, 10 and 20 mg/kg/BID i.p. 5 days, 50% PEG 400 and 25% ethanol): No effects of the compound were observed | nerve fiber density in spinal cord tissue vs vehicle control [2]: significantly higher nerve fiber density | solubility in 9% Cremophor EL, 1% ETOH and 90% saline ([3]; 9% Cremophor EL, 1% ETOH, 90% saline vehicle): quite soluble | solubility in 75% PEG-200 ([3]; 75% PEG-200 vehicle): not soluble
